Where “and” joins values, the source holds several entries; their conditions need not be identical. Equal values may be shown once.
Tests used:
[1] = biological target: T1, MspA-PBA (phenylboronic acid modified hetero-octameric (N90C)1(M2)7 MspA) (Mycolicibacterium smegmatis, UniProt A0QR29, D117C/D118N/D120N/D145R/D161R/E166K); test: Single channel recording of L-Sorbose binding to MspA-PBA nanopore; parameters: species or system Mycobacterium smegmatis; conditions: for 1/τoff Mean / 1/τon Mean / Amplitude of L-Sorbose events, Current, Mean: N=3
T1 construct: H6 (hexa-histidine) (C); 3-(maleimide) phenylboronic acid (MPBA) adduct on the thiol of Cys90; made in house; host or cells: E. coli BL21 (DE3) pLysS, co-expression from pETDuet-1

octameric M2 MspA-D16H6 = biological target: T2, octameric M2 MspA-D16H6 (Mycolicibacterium smegmatis, UniProt A0QR29, D117N/D118N/D120N/D145R/D161R/E166K); test: L-Sorbose sensing by octameric M2 MspA-D16H6 (control without PBA); format: binding, Mycobacterium smegmatis; conditions: L-Sorbose 50 mM in cis, +160 mV
T2 construct: D16 (16 consecutive aspartic acids) (C); H6 (hexa-histidine) (C); made in house; host or cells: E. coli BL21 (DE3) pLysS, pET-30a(+)
Description: FIG. 11: L-Sorbose sensing by an octameric M2 MspA-D16H6. L-Sorbose sensing was performed with an octameric M2 MspA-D16H6 in a 1.5 M KCl, 10 mM MOPS, pH7.0 buffer. A +160 mV bias was continually applied.
L-Sorbose is a monosaccharide ketose. It exists in all living species, ranging from bacteria to human^50. The commercial production of vitamin C (ascorbic acid) often begins with L-Sorbose^51. To further verify the existence of a PBA in the lumen of the pore, MspA-PBA was used to sense L-Sorbose. The measurement was performed with a single MspA-PBA and a 1.5 M KCl, 10 mM MOPS, pH 7.0 buffer with the continuous application of a +160 m V bias. The addition of L-Sorbose to cis to a 10 mM final concentration resulted immediately in the consecutive appearance of long residing resistive pulse events (FIGS. 1d-1f, Supplementary Video 1). […] In this way, it was confirmed that the introduction of a PBA to the pore lumen is critical for the generation of saccharide sensing events.
The measurement device is composed of two custom-made polyformaldehyde chambers separated by a ˜20 μm-thick Teflon film with a drilled aperture (˜100 μm in diameter). Before the measurement, the aperture was first treated with 0.5% (v/v) hexadecane in pentane and set for evaporation of the pentane. […] All events were detected by the “single channel research” function in Clampfit 10.7. […]

[2] = L-Sorbose 400 μM in cis, +160 mV
[3] = L-Sorbose 800 μM in cis, +160 mV
[4] = L-Sorbose 1200 μM in cis, +160 mV
[5] = L-Sorbose 1600 μM in cis, +160 mV
[6] = L-Sorbose 2000 μM in cis, +160 mV

T2 sequence (A0QR29 other isoform, or with tags, fused parts or gaps D117N/D118N/D120N/D145R/D161R/E166K): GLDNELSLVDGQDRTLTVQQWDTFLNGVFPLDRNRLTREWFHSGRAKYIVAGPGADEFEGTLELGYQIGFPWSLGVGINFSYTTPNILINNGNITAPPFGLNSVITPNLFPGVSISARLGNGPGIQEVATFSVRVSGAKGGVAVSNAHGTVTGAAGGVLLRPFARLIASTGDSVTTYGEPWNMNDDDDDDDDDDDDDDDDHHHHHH

For O=C(CO)[C@@H](O)[C@H](O)[C@@H](O)CO [L-Sorbose, L-(−)-Sorbose], the “Amplitude of L-Sorbose events, Current, Pore1” value (from here on “Amplitude … Pore1”) ([1]; 40 mV, L-Sorbose 5 mM in cis) was 29.3 ± 0.0005 pA, the “Amplitude of L-Sorbose events, Current, Pore2” value (from here on “Amplitude … Pore2”) ([1]; 40 mV, L-Sorbose 5 mM in cis) was 29.05 ± 0.0005 pA and the “Amplitude of L-Sorbose events, Current, Pore3” value (from here on “Amplitude … Pore3”) ([1]; 40 mV, L-Sorbose 5 mM in cis) was 29.2 ± 0.002 pA. The “1/τoff Mean” value ([1]; 40 mV, L-Sorbose 5 mM in cis) was 5.06E−04 ms^−1, the “1/τon Mean” value ([1]; 40 mV, L-Sorbose 5 mM in cis) was 7.9E−04 ms^−1 and the “Amplitude of L-Sorbose events, Current, Mean” value (from here on “Amplitude … Mean”) ([1]; 40 mV, L-Sorbose 5 mM in cis) was 29.2 pA. The “Amplitude … Pore1” value ([1]; 70 mV, L-Sorbose 5 mM in cis) was 54.5 ± 0.010 pA, the “Amplitude … Pore2” value ([1]; 70 mV, L-Sorbose 5 mM in cis) was 52.7 ± 0.0008 pA and the “Amplitude … Pore3” value ([1]; 70 mV, L-Sorbose 5 mM in cis) was 52.5 ± 0.0008 pA. The “1/τoff Mean” value ([1]; 70 mV, L-Sorbose 5 mM in cis) was 4.3E−04 ms^−1, the “1/τon Mean” value ([1]; 70 mV, L-Sorbose 5 mM in cis) was 7.4E−04 ms^−1 and the “Amplitude … Mean” value ([1]; 70 mV, L-Sorbose 5 mM in cis) was 53.08 pA. For the same compound, the “Amplitude … Pore1” value ([1]; 100 mV, L-Sorbose 5 mM in cis) was 74.6 ± 0.002 pA, the “Amplitude … Pore2” value ([1]; 100 mV, L-Sorbose 5 mM in cis) was 73.2 ± 0.009 pA and the “Amplitude … Pore3” value ([1]; 100 mV, L-Sorbose 5 mM in cis) was 73.3 ± 0.002 pA. The “1/τoff Mean” value ([1]; 100 mV, L-Sorbose 5 mM in cis) was 4.04E−04 ms^−1, the “1/τon Mean” value ([1]; 100 mV, L-Sorbose 5 mM in cis) was 8.7E−04 ms^−1 and the “Amplitude … Mean” value ([1]; 100 mV, L-Sorbose 5 mM in cis) was 73.7 pA. For the same compound, the “Amplitude … Pore1” value ([1]; 130 mV, L-Sorbose 5 mM in cis) was 91.6 ± 0.003 pA, the “Amplitude … Pore2” value ([1]; 130 mV, L-Sorbose 5 mM in cis) was 90.3 ± 0.004 pA and the “Amplitude … Pore3” value ([1]; 130 mV, L-Sorbose 5 mM in cis) was 90.3 ± 0.004 pA. The “1/τoff Mean” value ([1]; 130 mV, L-Sorbose 5 mM in cis) was 3.8E−04 ms^−1, the “1/τon Mean” value ([1]; 130 mV, L-Sorbose 5 mM in cis) was 8.4E−04 ms^−1 and the “Amplitude … Mean” value ([1]; 130 mV, L-Sorbose 5 mM in cis) was 90.8 pA. For the same compound, the “Amplitude … Pore1” value ([1]; 160 mV, L-Sorbose 5 mM in cis) was 107.7 ± 0.005 pA, the “Amplitude … Pore2” value ([1]; 160 mV, L-Sorbose 5 mM in cis) was 104.9 ± 0.006 pA and the “Amplitude … Pore3” value ([1]; 160 mV, L-Sorbose 5 mM in cis) was 105.3 ± 0.006 pA. The “1/τoff Mean” value ([1]; 160 mV, L-Sorbose 5 mM in cis) was 2.9E−04 ms^−1, the “1/τon Mean” value ([1]; 160 mV, L-Sorbose 5 mM in cis) was 8.5E−04 ms^−1 and the “Amplitude … Mean” value ([1]; 160 mV, L-Sorbose 5 mM in cis) was 105.9 pA. The “Amplitude … Pore1” value ([1]; 190 mV, L-Sorbose 5 mM in cis) was 122.9 ± 0.007 pA, the “Amplitude … Pore2” value ([1]; 190 mV, L-Sorbose 5 mM in cis) was 116.7 ± 0.008 pA and the “Amplitude … Pore3” value ([1]; 190 mV, L-Sorbose 5 mM in cis) was 120.7 ± 0.010 pA. The “1/τoff Mean” value ([1]; 190 mV, L-Sorbose 5 mM in cis) was 2.9E−04 ms^−1, the “1/τon Mean” value ([1]; 190 mV, L-Sorbose 5 mM in cis) was 8.3E−04 ms^−1 and the “Amplitude … Mean” value ([1]; 190 mV, L-Sorbose 5 mM in cis) was 120.13 pA. For the same compound, the “Amplitude … Pore1” value ([1]; 220 mV, L-Sorbose 5 mM in cis) was 143.6 ± 0.02 pA, the “Amplitude … Pore2” value ([1]; 220 mV, L-Sorbose 5 mM in cis) was 132.9 ± 0.02 pA and the “Amplitude … Pore3” value ([1]; 220 mV, L-Sorbose 5 mM in cis) was 137.2 ± 0.013 pA. For the same compound, the “1/τoff Mean” value ([1]; 220 mV, L-Sorbose 5 mM in cis) was 3.4E−04 ms^−1, the “1/τon Mean” value ([1]; 220 mV, L-Sorbose 5 mM in cis) was 8.07E−04 ms^−1 and the “Amplitude … Mean” value ([1]; 220 mV, L-Sorbose 5 mM in cis) was 137.9 pA. For the same compound, the “blockage amplitude (ΔI) / current drop of L-Sorbose sensing events” value ([1]; +160 mV, L-Sorbose 10 mM in cis) was ~100 pA and ~102 pA, the “1/τoff Mean” value [1, 2] was 2.9E−04 ms^−1 and the “1/τon Mean” value [1, 2] was 5.10E−05 ms^−1. For the same compound, the “1/τoff Mean” value [1, 3] was 2.9E−04 ms^−1, the “1/τon Mean” value [1, 3] was 1.03E−04 ms^−1 and the “1/τoff Mean” value [1, 4] was 3.08E−04 ms^−1. The “1/τon Mean” value [1, 4] was 1.7E−04 ms^−1, the “1/τoff Mean” value [1, 5] was 3.11E−04 ms^−1 and the “1/τon Mean” value [1, 5] was 2.2E−04 ms^−1. The “1/τoff Mean” value [1, 6] was 2.9E−04 ms^−1, the “1/τon Mean” value [1, 6] was 3.07E−04 ms^−1 and the “1/τoff Mean” value ([1]; −40 mV, L-Sorbose 5 mM in cis) was 5.01E−04 ms^−1. The “1/τon Mean” value ([1]; −40 mV, L-Sorbose 5 mM in cis) was 7.6E−04 ms^−1 and the “resistive pulse events with M2 MspA” value (octameric M2 MspA-D16H6) was “failed to cause any resistive pulse events”.

Source: patent US20240418701A1, “SINGLE MOLECULE IDEN[…] A REACTIVE HETERO-NANOPORE” (priority 2021, published 2024)
